Test results reported in patent publication US8053585B2, “Protecting group for carboxylic acids that can be photolyzed by visible light” (Cornell Research Foundation, Inc., priority 2006, dated 2011).
“Also recorded” adds a separate entry of the source.

Biological target: T1, α1-subunit of the human glycine receptor (Homo sapiens, UniProt P23415)
T1 construct: expressed in transfected cells; host or cells: HEK 293 cells, transiently transfected (Polyfect), co-transfected with GFP plasmid as marker; cDNA from Prof; H. Betz
T1 sequence (P23415 29-457): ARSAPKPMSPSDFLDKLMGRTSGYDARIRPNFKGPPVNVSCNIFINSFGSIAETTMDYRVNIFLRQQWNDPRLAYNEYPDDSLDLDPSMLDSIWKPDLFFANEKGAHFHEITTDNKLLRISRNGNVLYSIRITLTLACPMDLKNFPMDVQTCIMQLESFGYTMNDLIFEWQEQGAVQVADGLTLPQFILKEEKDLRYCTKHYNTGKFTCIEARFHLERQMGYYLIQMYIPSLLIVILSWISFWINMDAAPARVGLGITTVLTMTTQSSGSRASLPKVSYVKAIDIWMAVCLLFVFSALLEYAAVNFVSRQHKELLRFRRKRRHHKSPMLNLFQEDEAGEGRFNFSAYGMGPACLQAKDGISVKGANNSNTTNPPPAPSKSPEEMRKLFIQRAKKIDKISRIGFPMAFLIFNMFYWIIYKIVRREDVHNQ
Assay: Whole-cell current recording with cell-flow method, HEK 293 cells expressing glycine receptor
Type: cell-based
Source text: In whole-cell current recording experiments with DECM-caged glutamate, HEK 293 cells stably transfected with cDNA encoding the GluR6 were used. In whole-cell current recording experiments with DECM-caged glycine, HEK 293 cells were transiently transfected with the cDNA of the α1-subunit of the human glycine receptor by using the Polyfect™ transfection reagent (Qiagen GmbH, D-40724, Hilden, Germany). The cDNA of the α1-subunit was kindly provided by Professor H. Betz (Max-Plank-Institute for brain Research, Frankfurt, Germany). The cells were co-transfected with cDNA encoding the green fluorescent protein (pGreen Lantern plasmid, Life Technologies, Gaitherberg, Md.) to detect transfected cells (Chalfie et al., “Green Fluorescent Protein as a Marker for Gene Expression,” Science 263:802-805 (1994), which is hereby incorporated by reference in its entirety).
The cells were used for electrophysiological experiments between 24 and 72 h after each passage. Whole-cell currents evoked by glutamate or glycine (100 μM) were recorded using the whole-cell configuration (Hamill et al., “Improved Patch-Clamp Techniques for High-Resolution Current Recording From Cells and Cell-Free Membrane Patches,” Pfluegers Arch 391:85-100 (1981), which is hereby incorporated by reference in its entirety) at room temperature, −60 mV, and pH 7.4. […]

## CCN(CC)c1ccc2c(COC(=O)CN)cc(=O)oc2c1 [DECM-caged glycine, (7-N,N-Diethylaminocoumarin-4-yl)-methyl-glycine-trifluoroacetate]
2 mM DECM-caged glycine (FIG. 10 legend), −60 mV, pH 7.4, 22° C.
  whole-cell current evoked by 100 μM glycine, presence vs absence of compound: does not inhibit
HEK293 cells expressing glycine receptors
  biological activity at glycine receptors (inhibition or activation): biologically inert; also recorded: neither DECM-caged glycine nor its byproducts inhibited or activated the glycine receptors
